Patent publication US5925667A, “Pyrrolidine derivative, anti-ulcer drug, and antibacterial drug” (Shiseido Co., Ltd., priority 1997, dated 1999)

Tests used:
[1] = MTT: Cell Damaging and Protecting Effect Test; format: cell-based, male Japanese White rabbit; conditions: rabbit, gastric mucosa cells, final concentration 10^-4 M, smaller value is better, read-out: cell damaging rate (MTT)
From the text: MTT: Cell Damaging and Protecting Effect Test
It is confirmed that there is no toxicity in cell level. Those having a toxicity in cell level are inappropriate as an anti-ulcer drug.
A male Japanese White rabbit (2.5 to 3 kg) was anesthetized to death by Nembutal™ and, immediately thereafter, its stomach was removed. The greater curvature of the stomach was incised so as to remove the stomach contents therefrom. After the mucosal surface was washed with HBSS (Hanks' Balanced Salt Solution), the stomach in ice-cooled HBSS was transferred to a laboratory. Then, after the pyloric antrum was removed, the gastric corpus mucosa was separated by a spatula and then minced into 2 to 3 mm^3 pieces in BME (Basal Medium Eagle). Thereafer, these pieces were shaken at 120 to 130 cycles/minute for 15 minutes at 37° C. in BME 60 ml containing 280 U/ml of dispase and 30 to 50 U/ml of collagenase. Here, the concentration of collagenase was appropriately changed for each lot in view of the state of cells. The pieces were washed twice with EBSS (Earle's Balanced Salt Solution) containing 1 mM of EDTA and then shaken in MEM (Minimum Essential Medium) containing 1 mM of EDTA at 37° C. for 5 minutes. Subsequently, they were shaken in the dispase and collagenase having the same concentrations as those mentioned above for 15 minutes so as to remove the supernatant and then further shaken at 37° C. for 50 to 60 minutes at 120 to 130 cycles/minute. Then, after being washed twice with HBSS, Ham F12 containing 2% of Ultrocer G™ was used to attain the concentration of 1×10^6 cells/ml. Thus formed suspension was dispensed in each well of a 96-well plate by 200 μl. The plate was incubated in the atmosphere composed of 5% CO2 and 95% air at 37° C. for three days so as to attain a confluent state and then subjected to MTT assay.
The sample compound was dissolved in DMSO so as to attain a concentration of 10^-2 M and then diluted with HBSS containing 2% of Ultrocer G™ so as to attain a final concentration of 10^-4 M. To each group, which 8 wells were used for, 10 μl of MTT reagent was added immediately after 100 μl of the medium in each well was exchanged for same volume of the resulting solution of the sample compound. After being incubated in an atmosphere composed of 5% CO2 and 95% air at 37° C. for 4 hours, thus formed solution was centrifuged and then its supernatant was discarded. Subsequently, 100 μl of 100% ethanol was added to the residue so as to dissolve MTT formazan. Then, the absorbance (OD: 570 to 630) was measured by a microplate reader. This method utilizes a phenomenon in which MTT is changed to MTT formazan only by mitochondria of living cells so as to change color.
The cell damaging or cell protecting effect of the sample compound at the final concentration of 10^-4 M was expressed as cell damaging rate (%) as follows:
cell damaging rate (%)=(1-(absorbance in sample group/absorbance in control group))×100
Accordingly, the smaller value is better in the cell damaging rate.

[2] = tested on: HP NCTC 11637; experiment: AHP: Antibacterial Activity Test Against Helicobacter pyroli (agar dilution MIC); format: cell-based; conditions: NCTC11637, 168 h, 7 days

Compound	cytotoxicity at 4 h, 100 µM [1]	MIC [2]
CCN1CCCC1CNC(=O)c1cc(OCC=C(C)C)ccc1OCC=C(C)C (stereo not shown) [Example 6, 1-ethyl-2-(2,5-diprenyloxybenzoylaminomethyl)pyrrolidine]	34%	
CCN1CCCC1CNC(=O)c1ccc(OCC=C(C)C)c(OCC=C(C)C)c1 (stereo not shown) [Example 7, 1-ethyl-2-(3,4-diprenyloxybenzoylaminomethyl)pyrrolidine]	28%	
CCN1CCCC1CNC(=O)c1cc(OC/C=C(\C)CCC=C(C)C)ccc1OC/C=C(\C)CCC=C(C)C (stereo not shown) [Example 10, 1-ethyl-2-(2,5-digeranyloxybenzoylaminomethyl)pyrrolidine]	15%	< 3.13 µg/mL
